Results reported in ChEMBL document CHEMBL1201862, “PubChem BioAssay data set” (2004).
Calls of active or inactive are those of the source.

Columns and labels:
NS3 = NS3 (Hepatitis C virus, UniProt A3EZJ3); assay: PubChem AID 2173; set-up: species or system Hepacivirus hominis
[1] = biological target: T1, RNA-binding protein pos-1 (Caenorhabditis elegans, UniProt G5EF15); assay: disruptors of C. elegans POS-1 RNA interaction – biochemical, fluorescence polarization, dose response (AID 1964);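 further: purified POS-1 fused to maltose binding protein made in E. coli; potency of compounds blocking POS-1 binding to fluorescent RNA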
T1 sequence (G5EF15 whole entry): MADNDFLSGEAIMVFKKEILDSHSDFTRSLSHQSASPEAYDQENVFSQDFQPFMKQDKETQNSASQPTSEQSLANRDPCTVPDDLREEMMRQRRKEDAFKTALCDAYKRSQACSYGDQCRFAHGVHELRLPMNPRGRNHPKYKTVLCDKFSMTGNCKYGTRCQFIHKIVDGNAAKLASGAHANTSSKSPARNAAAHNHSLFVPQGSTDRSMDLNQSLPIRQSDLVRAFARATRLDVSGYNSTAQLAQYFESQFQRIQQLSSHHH

[2] = biological target: T2, Zinc finger protein mex-5 (Caenorhabditis elegans, UniProt Q9XUB2); assay: potency of MEX-5 RNA-binding blockers – biochemical, C. elegans, fluorescence polarization, dose response (AID 1960)
T2 sequence (Q9XUB2 whole entry): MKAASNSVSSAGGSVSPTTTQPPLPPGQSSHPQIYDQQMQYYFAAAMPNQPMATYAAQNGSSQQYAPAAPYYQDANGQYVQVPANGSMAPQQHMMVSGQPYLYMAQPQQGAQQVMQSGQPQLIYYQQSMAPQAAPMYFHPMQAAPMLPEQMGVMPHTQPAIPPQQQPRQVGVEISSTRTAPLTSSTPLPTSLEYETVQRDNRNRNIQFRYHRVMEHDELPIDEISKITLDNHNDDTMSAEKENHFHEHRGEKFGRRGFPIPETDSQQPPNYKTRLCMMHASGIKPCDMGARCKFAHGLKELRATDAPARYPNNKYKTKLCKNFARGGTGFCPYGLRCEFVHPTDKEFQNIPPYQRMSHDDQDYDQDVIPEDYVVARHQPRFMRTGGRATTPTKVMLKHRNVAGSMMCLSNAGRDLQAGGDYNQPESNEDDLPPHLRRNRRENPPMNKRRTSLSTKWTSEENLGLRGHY

[3] = luciferase reporter signal reduction – luminescence, H4-C neuroglioblastoma cells, dose response (AID 2458); assay type: functional, cell-based;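 further: H4 neuroglioblastoma cells stably carrying a luciferase reporter gene fusion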
[4] = luciferase reporter signal suppression in cells – H4 neuroglioma cells, luminescence, dose response (AID 1990); assay type: functional, cell-based
[5] = alpha-synuclein stem-loop translation blockers – luminescence, H4 neuroglioblastoma cells, dose confirmation, confirmation (AID 2454); assay type: functional, cell-based;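 further: H4 neuroglioblastoma cells carrying an alpha-synuclein 5'UTR luciferase reporter; potency for inhibition of the luciferase signal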
cells = assay type: functional, cell-based
[6] = alpha-synuclein stem-loop luciferase translation blockers – H4 neuroglioma cells, luminescence, confirmation (AID 1988); assay type: functional, cell-based
Estrogen receptor = biological target: T3, Estrogen receptor (Homo sapiens, UniProt P03372); assay: blockers of SRC-3 recruitment to ERα – biochemical, ELISA, streptavidin-HRP readout, orthogonal assay, confirmation (AID 1079)
T3 sequence (P03372 whole entry): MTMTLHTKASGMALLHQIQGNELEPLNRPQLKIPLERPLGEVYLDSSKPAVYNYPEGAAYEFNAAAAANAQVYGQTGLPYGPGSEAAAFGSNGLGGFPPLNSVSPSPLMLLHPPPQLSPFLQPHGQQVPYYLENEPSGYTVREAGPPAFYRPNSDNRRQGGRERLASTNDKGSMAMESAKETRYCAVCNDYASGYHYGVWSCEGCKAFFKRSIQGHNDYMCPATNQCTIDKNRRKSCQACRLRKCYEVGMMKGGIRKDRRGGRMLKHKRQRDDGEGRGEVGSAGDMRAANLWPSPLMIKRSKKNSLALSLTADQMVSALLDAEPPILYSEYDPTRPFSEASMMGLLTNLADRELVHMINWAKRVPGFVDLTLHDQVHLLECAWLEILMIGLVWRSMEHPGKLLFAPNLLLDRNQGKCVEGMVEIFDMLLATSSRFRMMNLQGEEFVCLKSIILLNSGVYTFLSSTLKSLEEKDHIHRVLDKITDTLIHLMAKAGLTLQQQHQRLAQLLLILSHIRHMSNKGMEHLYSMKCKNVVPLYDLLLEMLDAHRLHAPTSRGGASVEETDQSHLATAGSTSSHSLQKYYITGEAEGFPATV

Vasopressin V1a receptor = Vasopressin V1a receptor (Homo sapiens, UniProt P37288); assay: Counterscreen for Oxytocin Receptor (OXTR) agonists: Fluorescence-based cell-based high throughput dose response assay to identify agonists of the vasopressin 1 receptor (V1R). [Related pubchem assays: 2435 (Primary screen (OXTR agonists in singlicate)), 434991 (Counterscreen (V1R agonists in triplicate)), 2482 (Summary (OXTR agonists)) …; assay type: functional
Sequence of Vasopressin V1a receptor (P37288 whole entry): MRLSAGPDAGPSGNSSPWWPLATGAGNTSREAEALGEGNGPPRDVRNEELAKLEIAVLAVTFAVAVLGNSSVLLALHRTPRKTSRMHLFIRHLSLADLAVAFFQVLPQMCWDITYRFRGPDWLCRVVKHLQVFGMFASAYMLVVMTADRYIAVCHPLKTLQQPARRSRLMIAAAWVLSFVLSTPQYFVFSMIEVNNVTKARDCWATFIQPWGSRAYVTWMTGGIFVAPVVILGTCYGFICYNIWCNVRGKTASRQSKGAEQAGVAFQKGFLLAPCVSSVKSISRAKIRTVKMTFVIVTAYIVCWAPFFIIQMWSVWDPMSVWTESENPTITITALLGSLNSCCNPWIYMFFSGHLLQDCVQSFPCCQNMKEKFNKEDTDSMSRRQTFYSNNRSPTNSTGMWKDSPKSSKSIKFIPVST

[7] = reduction of Shn3 3'UTR-driven luciferase in osteoblasts – cell-based, Clone20 osteoblasts, firefly luciferase, cherry-picked, dose response (AID 624132); assay type: functional;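 further: firefly luciferase luminescence from reporter carrying the Shn3 3'UTR in osteoblasts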
[8] = non-specific 3'UTR reporter inhibition in Clone20-Shn3RL – cell-based, Renilla luciferase, cherry-picked, counter-screen for Shn3 inhibitor project, dose response (AID 624133); assay type: functional
Oxytocin receptor = Oxytocin receptor (Homo sapiens, UniProt P30559); assay: Fluorescence-based cell-based high throughput dose response assay for agonists of the Oxytocin Receptor (OXTR). [Related pubchem assays: 2435 (Primary screen (OXTR agonists in singlicate)), 434991 (Counterscreen (V1R agonists in triplicate)), 2482 (Summary (OXTR agonists)), 434963 (Confirmation screen (OXTR agonists in triplicate))]; assay type: functional
[9] = loss of viability in HepG2 cells – cell-based, CellTiter-Glo, cherry-picked, cytotoxicity control for Shn3 inhibitor project, dose response (AID 624134); assay type: functional
Protein Wnt-3a = Protein Wnt-3a (Mus musculus, UniProt P27467); assay: antagonism of Wnt3a pathway luciferase reporter – Wnt-LIGHT cells, luminescence, selectivity assay for Gli-SUFU antagonist project, dose response (AID 651570); assay type: functional; settings: read-out: IC50_Mean;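 further: Wnt-LIGHT reporter cells stimulated with conditioned medium from Wnt3a-producing cells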
Sequence of Protein Wnt-3a (P27467 whole entry): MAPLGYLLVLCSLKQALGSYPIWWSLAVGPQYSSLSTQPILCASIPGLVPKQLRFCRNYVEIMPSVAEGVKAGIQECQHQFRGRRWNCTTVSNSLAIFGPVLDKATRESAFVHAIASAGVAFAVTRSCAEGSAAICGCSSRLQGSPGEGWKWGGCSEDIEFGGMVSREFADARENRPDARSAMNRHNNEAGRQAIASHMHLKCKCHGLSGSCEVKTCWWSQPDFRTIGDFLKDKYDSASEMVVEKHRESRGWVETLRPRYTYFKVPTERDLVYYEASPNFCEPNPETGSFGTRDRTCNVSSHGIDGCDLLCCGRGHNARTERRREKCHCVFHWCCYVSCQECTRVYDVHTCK

[10] = biological target: Potassium voltage-gated channel subfamily KQT member 2 (Rattus norvegicus, UniProt O88943); assay: Mode of action assay - current amplitude concentration response for derivatives of ZTZ240, a potentiator of KCNQ2 potassium channels. [Related pubchem assays: 2258 (Summary assay for the KCNQ2 potentiators.), 2239 (Primary HTS assay for KCNQ2 potentiators with 305606 compounds tested, and 1644 are found to be active.)]; assay type: functional
[11] = biological target: Heat shock cognate 71 kDa protein (Homo sapiens, UniProt P11142); assay: In Vitro Hsc70 Dose Response Fluorescence Polarization Assay. [Related pubchem assays: 1072 ]
[12] = biological target: T4, Tyrosine-protein phosphatase non-receptor type 7 (Homo sapiens, UniProt P35236); assay type: functional
T4 sequence (P35236 whole entry): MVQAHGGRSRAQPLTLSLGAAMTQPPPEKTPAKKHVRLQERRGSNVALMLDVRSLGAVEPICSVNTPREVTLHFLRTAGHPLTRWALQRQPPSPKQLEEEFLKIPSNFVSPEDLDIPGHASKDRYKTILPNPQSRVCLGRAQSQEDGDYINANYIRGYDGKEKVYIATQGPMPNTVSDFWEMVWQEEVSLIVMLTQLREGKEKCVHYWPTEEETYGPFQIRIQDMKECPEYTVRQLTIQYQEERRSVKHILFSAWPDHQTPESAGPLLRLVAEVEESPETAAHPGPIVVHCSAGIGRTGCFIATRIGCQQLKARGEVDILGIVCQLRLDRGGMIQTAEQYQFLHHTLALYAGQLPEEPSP

[13] = biological target: Glyceraldehyde-3-phosphate dehydrogenase (Homo sapiens, UniProt P04406)
Sequence of Glyceraldehyde-3-phosphate dehydrogenase (P04406 whole entry): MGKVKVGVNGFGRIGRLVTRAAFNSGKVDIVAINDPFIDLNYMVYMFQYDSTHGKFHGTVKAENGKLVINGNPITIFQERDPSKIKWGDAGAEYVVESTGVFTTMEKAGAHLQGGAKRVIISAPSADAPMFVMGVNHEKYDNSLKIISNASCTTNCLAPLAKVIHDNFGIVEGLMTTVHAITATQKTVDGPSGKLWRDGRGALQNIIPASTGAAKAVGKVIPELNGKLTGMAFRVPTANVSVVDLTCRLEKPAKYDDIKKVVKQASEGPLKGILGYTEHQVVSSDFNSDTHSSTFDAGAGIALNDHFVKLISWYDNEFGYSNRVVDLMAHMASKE

[14] = biological target: Heat shock 70 kDa protein 1A (Homo sapiens, UniProt P0DMV8); assay: inhibition of Hsp70 binding activity – biochemical, fluorescence polarization, SAR follow-up (AID 1072)
[15] = biological target: T5, Dual specificity protein phosphatase 6 (Rattus norvegicus, UniProt Q64346);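 further: in vitro confirmatory secondary MKP-3 assay designed to detect irreversible or slow-binding inhibitors; recombinant His-tagged rat MKP-3 acting on the substrate OMFP; inhibitor potency from reduced phosphatase rate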
T5 sequence (Q64346 whole entry): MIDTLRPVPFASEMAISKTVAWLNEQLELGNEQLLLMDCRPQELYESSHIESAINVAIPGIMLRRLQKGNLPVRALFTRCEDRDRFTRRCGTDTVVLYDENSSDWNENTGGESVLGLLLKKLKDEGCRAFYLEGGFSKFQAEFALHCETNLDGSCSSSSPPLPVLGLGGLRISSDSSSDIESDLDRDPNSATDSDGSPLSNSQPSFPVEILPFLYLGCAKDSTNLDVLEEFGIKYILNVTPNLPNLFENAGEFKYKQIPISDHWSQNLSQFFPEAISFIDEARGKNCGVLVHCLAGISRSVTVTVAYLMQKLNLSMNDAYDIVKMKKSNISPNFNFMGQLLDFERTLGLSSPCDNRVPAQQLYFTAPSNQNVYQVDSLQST

[16] = cytotoxicity toward Colo320 cells – cell-based, CellTiter-Glo luminescence, IC50, dose response (AID 1117334); assay type: functional; settings: COLO 320
Phospholipase A2 = Phospholipase A2 (Homo sapiens, UniProt P04054); assay type: functional;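 further: confirmatory dose-response counterscreen on phospholipase A2, testing hits that came from an ultra-high-throughput screen for ATG4B inhibitors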
Sequence of Phospholipase A2 (P04054 whole entry): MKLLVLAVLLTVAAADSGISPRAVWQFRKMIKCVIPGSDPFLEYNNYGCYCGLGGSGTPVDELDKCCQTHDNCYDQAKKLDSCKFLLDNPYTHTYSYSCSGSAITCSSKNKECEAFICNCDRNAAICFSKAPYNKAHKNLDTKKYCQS

[17] = cytotoxicity toward HCT116 cells – cell-based, CellTiter-Glo luminescence, IC50, dose response (AID 1117332); assay type: functional; settings: HCT-116
[18] = CellTiter-Glo luminescence survival assay, SW480 colon tumor line, concentration-response curve, half-maximal inhibitory concentration (AID 1117338); assay type: functional
[19] = Reduced DLD-1 viability, concentration-response, CellTiter-Glo luminescence (AID 1117352); assay type: functional
Cytochrome P450 2D6 = Cytochrome P450 2D6 (Homo sapiens, UniProt P10635); assay: qHTS Assay for Inhibitors and Substrates of Cytochrome P450 2D6. [Related pubchem assays: 410 ]; assay type: ADME; settings: read-out: Potency
Cysteine protease ATG4B = biological target: T6, Cysteine protease ATG4B (Homo sapiens, UniProt Q9Y4P1); assay type: functional;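 further: Fluorescence-based dose-response confirmation assay measuring inhibition of ATG4B activity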
T6 sequence (Q9Y4P1 whole entry): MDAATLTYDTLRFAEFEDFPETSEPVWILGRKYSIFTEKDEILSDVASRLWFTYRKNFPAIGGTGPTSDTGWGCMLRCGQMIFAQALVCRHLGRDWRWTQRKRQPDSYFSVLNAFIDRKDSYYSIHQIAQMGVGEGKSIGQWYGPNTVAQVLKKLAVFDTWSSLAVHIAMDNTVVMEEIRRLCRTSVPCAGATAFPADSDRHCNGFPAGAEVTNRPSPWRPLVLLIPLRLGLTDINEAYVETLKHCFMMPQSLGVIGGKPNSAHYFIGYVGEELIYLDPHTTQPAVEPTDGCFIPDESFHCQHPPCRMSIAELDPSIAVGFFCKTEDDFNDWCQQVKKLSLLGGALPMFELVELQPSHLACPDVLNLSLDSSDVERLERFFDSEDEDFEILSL

[20] = SNU-C1 cell viability reduction, dose response, CellTiter-Glo luminescence (AID 1117323); assay type: functional, cell-based
[21] = RKO cell viability reduction, dose response, CellTiter-Glo luminescence (AID 1117322); assay type: functional
[22] = glucagon-like peptide-1 release potency in STC-1, concentration-response, half-maximal inhibitory concentration in the STC-1 line (AID 1117345); assay type: functional, cell-based
[23] = biological target: Voltage-gated inwardly rectifying potassium channel KCNH2 (Homo sapiens, UniProt Q12809); settings: Potency;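 further: confirmatory quantitative high-throughput screen measuring inhibition of hERG channel activity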
Sequence of Voltage-gated inwardly rectifying potassium channel KCNH2 (Q12809 whole entry): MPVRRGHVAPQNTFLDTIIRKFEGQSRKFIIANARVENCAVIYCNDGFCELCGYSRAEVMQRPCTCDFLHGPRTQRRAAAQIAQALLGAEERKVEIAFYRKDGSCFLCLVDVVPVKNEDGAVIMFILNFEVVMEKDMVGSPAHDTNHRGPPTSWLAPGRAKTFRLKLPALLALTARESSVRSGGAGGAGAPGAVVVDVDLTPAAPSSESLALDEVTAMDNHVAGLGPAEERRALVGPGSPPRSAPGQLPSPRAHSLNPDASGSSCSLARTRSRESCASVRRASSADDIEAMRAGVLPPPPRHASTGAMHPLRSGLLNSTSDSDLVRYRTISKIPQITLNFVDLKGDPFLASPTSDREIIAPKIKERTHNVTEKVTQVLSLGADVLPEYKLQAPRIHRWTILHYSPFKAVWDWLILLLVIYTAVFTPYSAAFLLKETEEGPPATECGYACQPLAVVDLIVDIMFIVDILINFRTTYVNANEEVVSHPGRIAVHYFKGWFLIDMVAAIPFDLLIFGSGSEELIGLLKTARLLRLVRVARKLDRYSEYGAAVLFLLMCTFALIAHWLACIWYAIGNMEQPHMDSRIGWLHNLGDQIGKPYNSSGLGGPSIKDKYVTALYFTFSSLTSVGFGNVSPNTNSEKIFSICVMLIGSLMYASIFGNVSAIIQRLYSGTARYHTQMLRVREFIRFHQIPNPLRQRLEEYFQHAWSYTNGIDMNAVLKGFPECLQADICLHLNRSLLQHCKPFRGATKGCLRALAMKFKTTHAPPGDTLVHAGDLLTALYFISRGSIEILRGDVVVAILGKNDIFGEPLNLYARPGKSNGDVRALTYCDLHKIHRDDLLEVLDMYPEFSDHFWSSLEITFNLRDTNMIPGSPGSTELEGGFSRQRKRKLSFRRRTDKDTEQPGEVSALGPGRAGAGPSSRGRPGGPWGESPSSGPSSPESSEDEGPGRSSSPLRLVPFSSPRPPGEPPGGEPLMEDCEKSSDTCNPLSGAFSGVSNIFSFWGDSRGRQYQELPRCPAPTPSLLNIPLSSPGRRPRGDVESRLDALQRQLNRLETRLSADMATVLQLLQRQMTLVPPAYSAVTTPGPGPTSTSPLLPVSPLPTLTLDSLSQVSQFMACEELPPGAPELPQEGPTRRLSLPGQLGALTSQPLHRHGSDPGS

[24] = biological target: Heat shock protein HSP 90-alpha (Homo sapiens, UniProt P07900); assay type: functional, organism-based
[25] = Potency on glucagon-like peptide 1 release, dose-response in NCI-H716 cell line, half maximal inhibitory concentration (AID 1117344); assay type: functional, cell-based
[26] = HCT116 cell viability decrease, GSK3B pretreatment – CellTiter-Glo, IC50, dose response (AID 1117339); assay type: functional; settings: HCT-116
Fatty acid synthase = Fatty acid synthase (Homo sapiens, UniProt P49327); assay: inhibition of human FAS-TE enzyme activity – biochemical, kinetic fluorescence intensity, dose response (AID 624326); assay type: functional;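 further: rate of fluorescence rise from hydrolysis of a fluorogenic O-methyl fluorescein ester substrate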
Sequence of Fatty acid synthase (P49327 whole entry): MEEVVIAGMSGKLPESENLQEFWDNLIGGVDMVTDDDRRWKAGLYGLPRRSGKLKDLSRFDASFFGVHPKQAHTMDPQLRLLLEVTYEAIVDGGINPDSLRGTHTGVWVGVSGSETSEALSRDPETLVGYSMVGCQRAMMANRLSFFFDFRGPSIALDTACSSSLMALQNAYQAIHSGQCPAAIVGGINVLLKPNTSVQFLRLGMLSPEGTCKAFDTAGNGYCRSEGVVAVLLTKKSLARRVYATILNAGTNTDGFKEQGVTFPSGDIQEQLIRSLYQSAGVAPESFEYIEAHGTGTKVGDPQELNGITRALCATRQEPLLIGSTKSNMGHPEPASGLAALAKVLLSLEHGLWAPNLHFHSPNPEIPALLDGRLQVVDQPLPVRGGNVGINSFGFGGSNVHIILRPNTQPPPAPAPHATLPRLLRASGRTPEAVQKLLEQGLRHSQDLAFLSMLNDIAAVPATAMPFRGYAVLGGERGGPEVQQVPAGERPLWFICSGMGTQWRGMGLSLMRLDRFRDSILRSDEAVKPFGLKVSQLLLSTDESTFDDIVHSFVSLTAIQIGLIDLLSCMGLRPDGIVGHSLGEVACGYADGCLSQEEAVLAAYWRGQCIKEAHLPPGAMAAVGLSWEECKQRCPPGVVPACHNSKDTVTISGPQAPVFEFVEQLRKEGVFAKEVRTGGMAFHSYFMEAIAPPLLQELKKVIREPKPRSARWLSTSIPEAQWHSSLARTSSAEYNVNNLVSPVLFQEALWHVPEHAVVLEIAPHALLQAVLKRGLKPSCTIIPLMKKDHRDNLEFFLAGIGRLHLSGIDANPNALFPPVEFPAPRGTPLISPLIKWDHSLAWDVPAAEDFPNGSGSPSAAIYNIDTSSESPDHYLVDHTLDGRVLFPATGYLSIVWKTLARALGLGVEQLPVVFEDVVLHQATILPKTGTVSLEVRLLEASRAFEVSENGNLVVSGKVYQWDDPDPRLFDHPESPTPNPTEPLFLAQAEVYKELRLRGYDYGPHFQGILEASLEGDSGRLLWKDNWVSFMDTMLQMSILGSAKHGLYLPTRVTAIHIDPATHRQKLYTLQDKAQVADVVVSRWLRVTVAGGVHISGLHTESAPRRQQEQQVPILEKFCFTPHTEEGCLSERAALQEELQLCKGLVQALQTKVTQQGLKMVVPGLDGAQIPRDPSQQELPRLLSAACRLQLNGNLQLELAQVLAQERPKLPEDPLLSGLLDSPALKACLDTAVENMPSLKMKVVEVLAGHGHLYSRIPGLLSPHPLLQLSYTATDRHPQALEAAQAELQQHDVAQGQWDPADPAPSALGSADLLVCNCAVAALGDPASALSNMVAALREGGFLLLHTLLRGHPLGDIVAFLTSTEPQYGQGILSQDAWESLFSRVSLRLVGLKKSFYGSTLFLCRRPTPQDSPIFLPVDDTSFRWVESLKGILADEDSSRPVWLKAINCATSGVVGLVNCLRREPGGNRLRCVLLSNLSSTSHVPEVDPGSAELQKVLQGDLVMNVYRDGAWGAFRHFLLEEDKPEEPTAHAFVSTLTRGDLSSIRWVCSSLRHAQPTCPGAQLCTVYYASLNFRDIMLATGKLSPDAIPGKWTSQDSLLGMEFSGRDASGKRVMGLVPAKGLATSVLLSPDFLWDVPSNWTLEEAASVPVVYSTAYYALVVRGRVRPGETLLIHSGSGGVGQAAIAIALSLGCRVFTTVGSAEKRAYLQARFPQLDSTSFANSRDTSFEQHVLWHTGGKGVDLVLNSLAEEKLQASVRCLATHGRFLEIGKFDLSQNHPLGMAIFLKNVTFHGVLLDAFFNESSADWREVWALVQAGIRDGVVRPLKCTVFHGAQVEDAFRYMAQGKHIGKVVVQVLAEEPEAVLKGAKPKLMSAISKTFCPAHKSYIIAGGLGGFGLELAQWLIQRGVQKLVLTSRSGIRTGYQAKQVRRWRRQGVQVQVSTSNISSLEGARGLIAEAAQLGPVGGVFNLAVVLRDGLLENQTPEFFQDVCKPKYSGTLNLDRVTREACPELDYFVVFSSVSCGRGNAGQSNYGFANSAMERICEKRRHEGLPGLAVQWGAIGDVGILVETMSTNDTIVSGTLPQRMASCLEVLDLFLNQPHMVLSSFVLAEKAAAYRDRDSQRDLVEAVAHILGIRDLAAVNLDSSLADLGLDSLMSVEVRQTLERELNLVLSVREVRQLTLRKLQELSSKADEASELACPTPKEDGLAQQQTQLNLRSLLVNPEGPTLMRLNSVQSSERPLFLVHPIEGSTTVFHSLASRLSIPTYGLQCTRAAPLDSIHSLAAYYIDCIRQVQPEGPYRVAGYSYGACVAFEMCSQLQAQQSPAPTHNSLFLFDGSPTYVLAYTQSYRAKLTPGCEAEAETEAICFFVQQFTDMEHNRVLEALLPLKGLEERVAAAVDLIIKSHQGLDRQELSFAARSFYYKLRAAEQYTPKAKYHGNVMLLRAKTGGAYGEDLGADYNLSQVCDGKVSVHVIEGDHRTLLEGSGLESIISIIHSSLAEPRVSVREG

## COc1cccc(C2C(C#N)=C(N)OC3=C2C(=O)CC(c2ccco2)C3)c1OCc1ccc(F)cc1 (stereo unspecified)
NS3
  IC50: 33.5 µM (not active)
[1]
  EC50: > 300 µM (not active)
[2]
  EC50: > 300 µM (not active)

## COc1ccc(C2NCc3ccc4c(c3-n3cccc32)OCO4)cc1O (stereo unspecified)
[3]
  EC50: 2.6 µM (active)
[4]
  EC50: < 0.1 µM (active)
[5]
  EC50: > 12 µM (not active)
cells
  EC50: 5.44 µM (active)
[6]
  EC50: < 0.1 µM (active)

## O=C(CCCCCn1c(=S)[nH]c2ccccc2c1=O)N1CCN(c2cccc(Cl)c2)CC1
Estrogen receptor
  IC50: 0.35 µM (not active)

## COc1ccc(CNc2[nH]cnc3c4ccccc4nc2-3)cc1
Vasopressin V1a receptor
  EC50: > 29.9 µM (not active)
[7]
  AC50: 4.19 µM (active)
[8]
  AC50: 5.89 µM (active)
Oxytocin receptor
  EC50: 27.4 µM (not active)
[9]
  AC50: 28 µM (active)
Protein Wnt-3a
  IC50: 12.4 µM (active)

## O=C(Nc1ccc(Br)nc1)c1ccc(F)c(F)c1
[10]
  EC50: 3.72 µM (active)

## COC(=O)c1ccccc1OC(=O)c1ccc2c(c1)C1C=CCC1C(C(=O)O)N2 (stereo unspecified)
[11]
  IC50: 115 µM (active)
[12]
  IC50: 2.8 µM (active)
[13]
  IC50: 93.6 µM (active)
[14]
  IC50: 28 µM (active)
[15]
  IC50: 17 µM (active)

## Oc1ccc(Cl)cc1Sc1cc(Cl)ccc1O [FENTICLOR]
[16]
  IC50: 0.075 µM (active)
Phospholipase A2
  IC50: 15.2 µM (active)
[17]
  IC50: 0.183 µM (active)
[18]
  IC50: 0.579 µM (active)
[19]
  IC50: 0.301 µM (active)
Cytochrome P450 2D6
  AC50: 3.16 µM (inconclusive)
Cysteine protease ATG4B
  IC50: 11 µM (active)
[20]
  IC50: 1.85 µM (active)
[21]
  IC50: 0.116 µM (active)
[22]
  IC50: > 20 µM (inactive)
[23]
  AC50: 31.6 µM (inconclusive)
[24]
  AC50: 4.11 µM (active)
[25]
  IC50: 21.3 µM (inactive)
[26]
  IC50: 0.148 µM (active)
Fatty acid synthase
  IC50: 3.52 µM (active)
